Assay results published in patent US12029715B2, “Precursor compounds for providing retinoids of the vitamin A5 pathway and uses thereof” (UNIVERSITY OF DEBRECEN, priority 2015, dated 2024).
“Also recorded” adds a separate entry of the source. Each block holds one compound with its values, some of them ahead of it.

Experiments:
[1] = tested on: differentiating monocyte-derived human dendritic cells; assay: DNA microarray in differentiating monocyte-derived dendritic cells; assay type: cell-based; details: for expression of genes that are direct targets of RXR permissive heterodimers (LXR-RXR, PPAR-RXR) and RAR-RXR: 9CDHRA 10 μM, 9CRA 1 μM, GW3965 1 μM, RSG 1 μM, GW1516 1 μM, AM580 100 nM
Protocol: The generation and transcriptional analysis of differentiating DCs were performed as described previously [Szeles L et al. 2010]. Microarray data were deposited into the Gene Expression Omnibus database under accession no. GSE48573.
The generation and analysis of differentiating DCs were performed as described previously [Szeles L et al. 2010] with minor modifications. Briefly, human monocytes were isolated from healthy volunteer's buffy coat, obtained with a Regional Ethical Board permit from the Regional Blood Bank and isolated by Ficoll gradient centrifugation followed by immunomagnetic cell separation, and were cultured in the presence of GM-CSF and IL-4. Differentiating DCs were stimulated 18 h after […] by various agonists for 12 h. The ligands were used in the following concentrations: 10 μM (R)-9CDHRA, 10 μM (S)-9CDHRA, 1 μM 9cisRA, 100 nM LG100268, 1 μM GW3965, 1 μM Rosiglitazone (RSG), 1 μM GW1516, 100 nM AM580. Experiments were performed in biological triplicates. Samples were processed and hybridized to Human Genome U133 Plus 2.0 Arrays. Data were analysed using to GeneSpring 12.6.1 software. In detail, normalization was performed using RMA summarization algorithm. […] Microarray data were deposited into the Gene Expression Omnibus database under accession no. GSE48573.

[2] = tested on: Rbp1−/−, Rxrγ−/− and WT mice; assay: Forced swim test after acute treatment; assay type: in vivo, mouse; details: Rbp1−/− mice, acute i.p. treatment 5-6 h before the test
Protocol: (§1) The forced swim paradigm was carried out between 1 pm and 4 pm in a 3-litre glass beaker half-filled with water at 22-23° C. (the water depth was 17 cm). All mice were tested only once in this task. To this end, each mouse was lowered gently into the water and the time of immobility was scored during a 6-minute testing period. The mouse was judged immobile when it floated in an upright position and made only small movements to keep its head above the water. After 6 min, the mouse was taken out of the water, left to dry under a red light lamp and returned to its home cage. The immobility scores of each animal were used as an index of despair behavior.
(§2) Vehicle treatments consisted of 3% ethanol and 3% DMSO solution in sunflower oil. Treatments were administered by intraperitoneal injections at volume/weight ratio 3 ml/kg between 8-10 am and 5-6 h before the test as previously validated (Wietrzych-Schindler M, 2011).
as §1, with “paradigm (Dalvi and Lucki, 1999)” for “paradigm”, “2-litre” for “3-litre”

[3] = tested on: Rbp1−/− and Rxrγ−/− mice; assay: Y-maze spontaneous alternation; assay type: in vivo, mouse; details: 5-6 hours prior to testing
Protocol: The Y-maze apparatus and the procedure were as previously described (Wietrzych et al., 2005). Briefly, each mouse was placed at the end of one arm and allowed to explore freely the apparatus for 5 min, with the experimenter out of the animal's sight. Spontaneous alternation performance (SAP) was assessed visually by scoring the pattern of entries into each arm and expressed as a percentage of total number of entries, discounting the first two visits. Total entries were scored as an index of ambulatory activity in the Y-maze, but none of tested mice had to be excluded due to low locomotor performance (score below 9 entries).
as §2

[4] = tested on: human oligodendrocytes cell cultures; assay: Metabolic conversion in human oligodendrocytes cell culture (HPLC-MS); assay type: in vitro ADME; details: 10^−6M; for 9CDHRA levels in cells after treatment (metabolism / accumulation): n=3
Protocol: (§3) In a slight variant of the method, after reaching confluency of 80% cells were treated with 9CDHROL, 9CDH-retinyl ester (acetate, 9CDHROL-ES), 9CDHRA, 9CDH-retinoyl ester, (ethyl ester, 9CDHRA-ES), ATROL, 9CDHBC, 9CBC and ATBC at a concentration of 10^−6 M or ethanol at corresponding concentration was used as control vehicle treatment. Cells were harvested 18 hours later, centrifuged, weighted, frozen in liquid nitrogen and stored at −80° C. until analyses.
(§4) High performance liquid chromatography mass spectrometry (LC-MS) was carried out as described in Example 4.
9CDHRA levels including standard deviation in human oligodendrocytes cultures were assessed using HPLC-MS analysis after control treatment using ethanol (CTRL), as well as ATROL treatment (ATROL), 9CBC treatments (9CBC), ATBC treatments (ATBC), 9CDHBC treatment (9CDHBC), 9CDHROL treatments (9CDHROL), 9CDHROL-ester treatments (9CDHROL-ES), 9CDHRA treatments (9CDHRA) or 9CDHRA-ester treatments (9CDHRA-ES), each with 10^−6M concentration and n=3 (FIG. 14D).

[5] = tested on: oligodendrocytes cell line 158N; assay: Metabolic conversion in mouse oligodendrocytes cell culture (LC-MS); assay type: in vitro ADME; details: for 9CDHROL levels in cells after treatment: 10^−6 M, 18 hours; for 9CBC in cells after treatment: 411 nm detection, retention time 26.1 min; for 9CDHBC peak in cells after treatment: UV detection at 366 nm, retention time 25.1 min; for conversion to 9CDHRA: data not shown; for 9CDHRA levels in cells after treatment: 10^−5M for 18 h
Protocol: Normal immortalized oligodendrocytes cell line 158N was cultured as previously reported (Feutz et al., 2001). Expediently, cells were cultured in supplemented with 5% calf serum (Invitrogen, France). When cells attained 70% of confluency they were treated with 10^−2 M ethanol solution of one of the following compounds: 9CDHROL, 9CDHROL-acetate, 9CDHRA-ethyl ester. 9CDHRA and ethanol as controls, vehicle treatment. 18 h after treatment cells were collected in amber Eppendorf tubes and stored at −80° C. until analyses. Treatments and cell collection were carried out in light limited conditions to avoid photolysis of retinoids.
as §3, §4

[6] = Rbp1−/− mice, ATRA 5 mg/kg, UVI2108 1 mg/kg, MA 5 mg/kg, DHA 1 mg/kg, TTNPB 5 mg/kg

SMILES: Cc1cc(SCc2sc(-c3ccc(C(F)(F)F)cc3)nc2C)ccc1OCC(=O)O [GW1516, reference compound]
- expression of genes that are direct targets of RXR permissive heterodimers (LXR-RXR, PPAR-RXR) and RAR-RXR ([1]; LG268 100 nM): also induced

SMILES: CC1=C(/C=C/C(C)=C\C=C\C(C)=C\C(=O)O)C(C)(C)CCC1 [9CRA, 9-cis-retinoic acid, reference compound]
- expression of genes induced by AM580 (RAR-RXR target genes) [1]: also induced
- number of transcripts regulated ([1]; 10 μM (R)-9CDHRA, 1 μM 9CRA, 12 h, FC>2): 450
- expression of genes that are direct targets of RXR permissive heterodimers (LXR-RXR, PPAR-RXR) and RAR-RXR ([1]; LG268 100 nM): induce the expression of many genes

SMILES: Cc1cc2c(cc1C1(c3ccc(C(=O)O)cn3)CC1)C(C)(C)CCC2(C)C [LG268, reference compound]
- expression of genes that are direct targets of RXR permissive heterodimers (LXR-RXR, PPAR-RXR) and RAR-RXR ([1]; LG268 100 nM): induce the expression of many genes
- transcripts of the set common to (R)-9CDHRA and 9CRA also regulated by LG268 ([1]; LG268 100 nM): 61

SMILES: COC(C)(C)CCCC(C)C/C=C/C(C)=C/C(=O)O (stereo not shown) [methoprene acid]
- immobility (despair) in the forced swim test [2]: normalized increased despair
- immobility (despair) in the forced swim test ([2]; listed as MA): normalised
- working memory in spontaneous alternation in the Y-maze [3, 6]: pro-mnemonic effects
- working memory in spontaneous alternation in the Y-maze ([3]; Rbp1−/− mice, ATRA 5 mg/kg, UVI2108 1 mg/kg, MA 5 mg/kg, DHA 1 mg/kg, TTNPB 5 mg/kg, listed as MA): normalised
- working memory in spontaneous alternation in the Y-maze ([3]; Rxrγ−/− mice, same doses): not

SMILES: CC1(C)CCC(C)(C)c2cc(C(=O)Nc3ccc(C(=O)O)cc3)ccc21 [AM580, reference compound]
- expression of genes that are direct targets of RXR permissive heterodimers (LXR-RXR, PPAR-RXR) and RAR-RXR ([1]; LG268 100 nM): also induced

- 9CDHRA levels in cells after treatment (metabolism / accumulation) [4]: not converted to 9CDHRA
- 9CBC in cells after treatment [5]: no 9CBC could be detected
- 9CDHBC peak in cells after treatment [5]: not be conclusively detected
- conversion to 9CDHRA [5]: not converted to 9CDHRA
- ATBC level in cells after ATBC-treatment ([5]; detectable at 411 nm, eluting at 27.2 min): present in very high levels
SMILES: CC1=C(/C=C/C(C)=C/C=C/C(C)=C/C=C/C=C(C)/C=C/C=C(C)/C=C/C2=C(C)CCCC2(C)C)C(C)(C)CCC1 [ATBC, all-trans-β,β-carotene, reference compound]
- 9CDHROL levels in cells after treatment [5]: did not display any increase; also recorded: did not result in any increase

SMILES: C/C(=C\c1ccc(C(=O)O)cc1)c1ccc2c(c1)C(C)(C)CCC2(C)C [TTNPB]
- immobility (despair) in the forced swim test [2]: did not display such effects
- working memory in spontaneous alternation in the Y-maze [3, 6]: not

- production of 9CDHRA by the ester form compared with 9CDHROL and 9CDHRA, respectively [4]: higher production
- 9CDHRA levels in cells after treatment [5]: strong increase
- 9CDHROL levels in cells after treatment [5]: excellent/strongly
- conversion to 9CDHRA [5]: excellent precursor
SMILES: CC(=O)OCC[C@@H](C)/C=C/C=C(C)\C=C\C1=C(C)CCCC1(C)C (stereo in doubt) [9CDHROL-ES, (R)-9-cis-13,14-dihydroretinyl acetate]

- 9CDHRA levels in cells after treatment (metabolism / accumulation) [4]: not converted to 9CDHRA
- ATROL levels in cells after treatment ([5]; 10^−6M): a low conversion or induced increase
- 9CBC in cells after treatment [5]: could detect 9CBC
- 9CDHBC peak in cells after treatment [5]: higher peak was observed
- conversion to 9CDHRA [5]: not converted to 9CDHRA
SMILES: CC1=C(/C=C/C(C)=C\C=C\C(C)=C\C=C\C=C(C)\C=C\C=C(C)\C=C\C2=C(C)CCCC2(C)C)C(C)(C)CCC1 [9CBC, 9-cis-β,β-Carotene]
- 9CDHROL levels in cells after treatment [5]: no or just a weak increase; also recorded: weak significant increase

- production of 9CDHRA by the ester form compared with 9CDHROL and 9CDHRA, respectively [4]: higher production
- 9CDHRA levels in cells after treatment (metabolism / accumulation) [4]: strong accumulation
- 9CDHRA levels in cells after treatment [5]: very strong increase
SMILES: CCOC(=O)C[C@@H](C)/C=C/C=C(C)\C=C\C1=C(C)CCCC1(C)C [9CDHRA-ES, Ethyl (9Z,13R)-13,14-Dihydroretinoate]

SMILES: O=C(O)Cc1cccc(OCCCN(Cc2cccc(C(F)(F)F)c2Cl)CC(c2ccccc2)c2ccccc2)c1 [GW3965, reference compound]
- expression of genes that are direct targets of RXR permissive heterodimers (LXR-RXR, PPAR-RXR) and RAR-RXR ([1]; LG268 100 nM): also induced
